Experiments:
[1] = target: T1, recombinant METTL3/METTL14 complex (Homo sapiens, UniProt Q86U44); test: METTL3/14 Scintillation Proximity Assay (SPA), RNA methyltransferase activity; assay type: biochemical; settings: 5.31 nM METTL3/14 complex, 250 nM RNA substrate, 1 μM 3H-SAM, 90 min; for compounds marked * best of the two separated forms
T1 construct: purchased Active Motif 311970; host or cells: Sf9 cells

Caov-3 cells = test: Caov-3 cellular viability assay (ATP-Lite, 72 h); assay type: cell-based; settings: Homo sapiens, ATP-Lite luminescence, % viability relative to DMSO
How it was run: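 10000 cells/well treated 72 h at 37 °C, 5% CO2, in RPMI-1640 with 10% FBS and 0.1% DMSO final. Viability by ATP-Lite One Step luminescence. Expressed as % of DMSO control, with IC50 from each compound's concentration-response curve.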

Kasumi-1 cells = test: Kasumi-1 cellular viability assay (ATP-Lite, 72 h); assay type: cell-based; settings: Homo sapiens, ATP-Lite luminescence, % viability relative to DMSO
How it was run: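 Kasumi-1 AML cells, 15000/well in RPMI-1640 with 10% FBS, were exposed to compound titrations (0.1% final DMSO) for 72 h at 37 °C, 5% CO2. ATP-Lite One Step luminescence gave % viability versus DMSO control, and IC50 came from the concentration-response.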

T1 sequence (Q86U44 whole entry): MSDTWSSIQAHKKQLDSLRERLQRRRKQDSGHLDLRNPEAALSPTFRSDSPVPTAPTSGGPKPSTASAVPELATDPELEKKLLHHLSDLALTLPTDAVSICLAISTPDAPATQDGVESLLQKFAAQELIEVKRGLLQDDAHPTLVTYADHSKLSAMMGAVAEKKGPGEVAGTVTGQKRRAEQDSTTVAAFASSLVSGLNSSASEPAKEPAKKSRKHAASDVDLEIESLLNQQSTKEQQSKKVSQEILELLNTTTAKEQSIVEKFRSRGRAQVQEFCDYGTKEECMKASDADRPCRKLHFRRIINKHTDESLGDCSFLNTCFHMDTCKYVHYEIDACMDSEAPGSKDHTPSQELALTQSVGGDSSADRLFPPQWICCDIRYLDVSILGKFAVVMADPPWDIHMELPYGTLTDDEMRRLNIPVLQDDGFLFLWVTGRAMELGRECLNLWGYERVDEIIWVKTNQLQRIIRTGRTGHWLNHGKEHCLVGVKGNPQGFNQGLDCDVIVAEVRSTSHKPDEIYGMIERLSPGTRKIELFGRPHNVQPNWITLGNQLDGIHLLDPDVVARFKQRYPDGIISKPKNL
T1 sequence (Q9HCE5 whole entry partner): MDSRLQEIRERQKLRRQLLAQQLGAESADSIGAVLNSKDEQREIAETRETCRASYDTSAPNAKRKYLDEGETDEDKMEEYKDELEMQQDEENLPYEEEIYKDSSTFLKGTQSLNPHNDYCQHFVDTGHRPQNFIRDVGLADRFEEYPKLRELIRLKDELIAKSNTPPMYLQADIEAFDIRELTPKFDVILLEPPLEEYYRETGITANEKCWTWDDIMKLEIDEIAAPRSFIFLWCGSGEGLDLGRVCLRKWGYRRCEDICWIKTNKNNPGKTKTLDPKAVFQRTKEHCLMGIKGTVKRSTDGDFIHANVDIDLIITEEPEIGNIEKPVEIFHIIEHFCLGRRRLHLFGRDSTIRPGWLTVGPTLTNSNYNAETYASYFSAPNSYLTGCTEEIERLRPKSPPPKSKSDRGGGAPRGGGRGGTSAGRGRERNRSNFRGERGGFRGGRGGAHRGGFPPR

| Compound | IC50 [1] [nM] | IC50 (Caov-3 cells) [nM] | IC50 (Kasumi-1 cells) [nM] |
| --- | --- | --- | --- |
| O=C(Nc1cc(=O)n2ccccc2n1)C1(c2ccc(N3CCC[C@@H](NCC4CCC4)C3)nc2)COC1 [Compound 322, (R)-3-(6-(3-((cyclobutylmethyl)amino)piperidin-1-yl)pyridin-3-yl)-N-(4-oxo-4H-pyrido[1,2-a]pyrimidin-2-yl)oxetane-3-carboxamide] | ≤ 50 | 500 to 5000 | 500 to 5000 |
| CC(c1ccc(N2CCC[C@@H](NCC34CC(F)(C3)C4)C2)cn1)n1cc(-c2cncc(N3CCCC3)n2)nn1 (stereo partly drawn) [Compound 304, (3R)—N-((3-fluorobicyclo[1.1.1]pentan-1-yl)methyl)-1-(6-(1-(4-(6-(pyrrolidin-1-yl)pyrazin-2-yl)-1H-1,2,3-triazol-1-yl)ethyl)pyridin-3-yl)piperidin-3-amine] | ≤ 50 | ≤ 500 | ≤ 500 |
| O=C(NCc1ccc(N2CCC[C@@H](NCC3CCC3)C2)nn1)c1cc(=O)n2ccccc2n1 [Compound 002, (R)-N-((6-(3-((cyclobutylmethyl)amino)piperidin-1-yl)pyridazin-3-yl)methyl)-4-oxo-4H-pyrido[1,2-a]pyrimidine-2-carboxamide] | ≤ 50 | > 5000 | > 5000 |
| CC(c1ccc(N2CCC[C@@H](NCC3CC3)C2)nn1)c1nnc(-c2cncc(N3CCCC3)n2)o1 (single isomer, unassigned) [Compound 347] | ≤ 50 | 500 to 5000 | 500 to 5000 |
| O=C(Nc1cc(=O)n2ccccc2n1)C1(c2ccc(N3CCC[C@@H](NCC4CCC4)C3)cc2)COC1 [Compound 278, (R)-3-(4-(3-((cyclobutylmethyl)amino)piperidin-1-yl)phenyl)-N-(4-oxo-4H-pyrido[1,2-a]pyrimidin-2-yl)oxetane-3-carboxamide] | ≤ 50 | ≤ 500 | ≤ 500 |
| COc1cc(-c2cn(Cc3ccc(N4CCC[C@@H](NCCC(C)(C)C)C4)nn3)nn2)c2cn[nH]c2c1 [Compound 024, (R)-N-(3,3-dimethylbutyl)-1-(6-((4-(6-methoxy-1H-indazol-4-yl)-1H-1,2,3-triazol-1-yl)methyl)pyridazin-3-yl)piperidin-3-amine] | ≤ 50 | > 5000 | > 5000 |
| CC(n1cc(-c2cncc(N3CC4CC4C3)n2)nn1)n1ccc(N2CCC[C@@H](NCC3CC3)C2)cc1=O (single isomer, unassigned) [Compound 234] | ≤ 50 | ≤ 500 | ≤ 500 |
| CC(n1cnc(-c2cncc(N3CCCC3)n2)c1)n1ccc(N2CCC[C@@H](NCC3CC3)C2)cc1=O (single isomer, unassigned) [Compound 226] | ≤ 50 | ≤ 500 | ≤ 500 |
| c1cc(C2(n3cc(-c4cncc(C5CC5)n4)nn3)COC2)ncc1N1CCC[C@@H](NCC2CC2)C1 [Compound 323, (R)-N-(cyclopropylmethyl)-1-(6-(3-(4-(6-cyclopropylpyrazin-2-yl)-1H-1,2,3-triazol-1-yl)oxetan-3-yl)pyridin-3-yl)piperidin-3-amine] | ≤ 50 | ≤ 500 | ≤ 500 |
| c1cc(N2CCC[C@@H](NCC3CC3)C2)ncc1C1(n2cc(-c3cncc(N4CCCC4)n3)nn2)COC1 [Compound 207, (R)-N-(cyclopropylmethyl)-1-(5-(3-(4-(6-(pyrrolidin-1-yl)pyrazin-2-yl)-1H-1,2,3-triazol-1-yl)oxetan-3-yl)pyridin-2-yl)piperidin-3-amine] | ≤ 50 | ≤ 500 | ≤ 500 |
| CC(N[C@@H]1CCCN(c2ccc(C3(C(=O)Nc4cc(=O)n5ccccc5n4)COC3)nc2)C1)C1CCC1 (mixture of isomers) [Compound 336, 3-(5-((3R)-3-((1-cyclobutylethyl)amino)piperidin-1-yl)pyridin-2-yl)-N-(4-oxo-4H-pyrido[1,2-a]pyrimidin-2-yl)oxetane-3-carboxamide] | ≤ 50 | ≤ 500 | ≤ 500 |
| CC(n1cnc(-c2cncc(N(C)C)c2)c1)n1ccc(N2CCC[C@@H](NCC3CCC3)C2)cc1=O (single isomer, unassigned) [Compound 166] | ≤ 50 | ≤ 500 | ≤ 500 |

Source: patent US20250002475A1 (EPICS THERAPEUTICS, priority 2023, published 2025)
